From PubChem BioAssay (NCI)
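1) Cells in 96-well plates. 2) Compound, 48 h, 5 concentrations. 3) Linear interpolation between surrounding doses. 4) Unreached endpoint = highest concentration. GI50: concentration for 50% inhibition of growth. TGI: concentration producing complete growth inhibition.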

Assays:
Test in all cases: inhibition of tumour cell growth, NCI panel, 48 h
786-0 renal = tested on: 786-0 renal
A498 renal = tested on: A498 renal
A549 NSCLC = tested on: A549 NSCLC
BT-549 breast = tested on: BT-549 breast
CAKI-1 renal = tested on: CAKI-1 renal
CCRF-CEM leukemia = tested on: CCRF-CEM leukemia
COLO 205 colon = tested on: COLO 205 colon
HCC-2998 colon = tested on: HCC-2998 colon
HCT-116 colon = tested on: HCT-116 colon
HCT-15 colon = tested on: HCT-15 colon
HL-60(TB) leukemia = tested on: HL-60(TB) leukemia
HOP-62 NSCLC = tested on: HOP-62 NSCLC
HS 578T breast = tested on: HS 578T breast
HT29 colon = tested on: HT29 colon
IGROV1 ovarian = tested on: IGROV1 ovarian
K-562 leukemia = tested on: K-562 leukemia
KM12 colon = tested on: KM12 colon
LOX IMVI melanoma = tested on: LOX IMVI melanoma
M14 melanoma = tested on: M14 melanoma
MCF7 breast = tested on: MCF7 breast
MDA-MB-435 = tested on: MDA-MB-435
MDA-MB-468 breast = tested on: MDA-MB-468 breast
MOLT-4 leukemia = tested on: MOLT-4 leukemia
NCI-H226 lung = tested on: NCI-H226 lung
NCI-H23 lung = tested on: NCI-H23 lung
NCI-H460 lung = tested on: NCI-H460 lung
NCI-H522 lung = tested on: NCI-H522 lung
OVCAR-3 ovarian = tested on: OVCAR-3 ovarian
OVCAR-4 ovarian = tested on: OVCAR-4 ovarian
OVCAR-5 ovarian = tested on: OVCAR-5 ovarian
OVCAR-8 ovarian = tested on: OVCAR-8 ovarian
PC-3 prostate = tested on: PC-3 prostate
RPMI-8226 leukemia = tested on: RPMI-8226 leukemia
RXF 393 renal = tested on: RXF 393 renal
SF-268 CNS = tested on: SF-268 CNS
SF-295 CNS = tested on: SF-295 CNS
SF-539 CNS = tested on: SF-539 CNS
SK-MEL-2 melanoma = tested on: SK-MEL-2 melanoma
SK-MEL-5 melanoma = tested on: SK-MEL-5 melanoma
SK-OV-3 ovarian = tested on: SK-OV-3 ovarian
SN12C renal = tested on: SN12C renal
SNB-19 CNS = tested on: SNB-19 CNS
SNB-75 CNS = tested on: SNB-75 CNS
SR leukemia = tested on: SR leukemia
SW-620 colon = tested on: SW-620 colon
TK-10 renal = tested on: TK-10 renal
U251 CNS = tested on: U251 CNS
UACC-257 melanoma = tested on: UACC-257 melanoma
UACC-62 melanoma = tested on: UACC-62 melanoma
UO-31 renal = tested on: UO-31 renal

Compound: O=C1NC(=NC23CC4CC(CC(C4)C2)C3)N/C1=C\c1ccc2ncsc2c1
- GI50 (786-0 renal): 3.05 µM
- TGI (786-0 renal): > 100 µM
- GI50 (A498 renal): 2.7 µM
- TGI (A498 renal): 7.79 µM
- GI50 (A549 NSCLC): 1.19 µM
- TGI (A549 NSCLC): > 100 µM
- GI50 (BT-549 breast): 1.63 µM
- TGI (BT-549 breast): 7 µM
- GI50 (CAKI-1 renal): 1.33 µM
- TGI (CAKI-1 renal): > 100 µM
- GI50 (CCRF-CEM leukemia): 1.12 µM
- TGI (CCRF-CEM leukemia): 5.96 µM
- GI50 (COLO 205 colon): 1.8 µM
- TGI (COLO 205 colon): 6.77 µM
- GI50 (HCC-2998 colon): 3.32 µM
- TGI (HCC-2998 colon): > 100 µM
- GI50 (HCT-116 colon): 0.323 µM
- TGI (HCT-116 colon): > 100 µM
- GI50 (HCT-15 colon): 0.663 µM
- TGI (HCT-15 colon): > 100 µM
- GI50 (HL-60(TB) leukemia): 1.63 µM
- TGI (HL-60(TB) leukemia): 5.25 µM
- GI50 (HOP-62 NSCLC): 3.35 µM
- TGI (HOP-62 NSCLC): > 100 µM
- GI50 (HS 578T breast): 2.73 µM
- TGI (HS 578T breast): 8.13 µM
- GI50 (HT29 colon): 3.09 µM
- TGI (HT29 colon): > 100 µM
- GI50 (IGROV1 ovarian): 2.58 µM
- TGI (IGROV1 ovarian): > 100 µM
- GI50 (K-562 leukemia): 0.762 µM
- TGI (K-562 leukemia): > 100 µM
- GI50 (KM12 colon): 1.8 µM
- TGI (KM12 colon): > 100 µM
- GI50 (LOX IMVI melanoma): 0.928 µM
- TGI (LOX IMVI melanoma): > 100 µM
- GI50 (M14 melanoma): 2.42 µM
- TGI (M14 melanoma): > 100 µM
- GI50 (MCF7 breast): 1.37 µM
- TGI (MCF7 breast): > 100 µM
- GI50 (MDA-MB-435): 3.11 µM
- TGI (MDA-MB-435): > 100 µM
- GI50 (MDA-MB-468 breast): 1.24 µM
- TGI (MDA-MB-468 breast): 3.67 µM
- GI50 (MOLT-4 leukemia): 1.65 µM
- TGI (MOLT-4 leukemia): > 100 µM
- GI50 (NCI-H226 lung): 1.43 µM
- TGI (NCI-H226 lung): > 100 µM
- GI50 (NCI-H23 lung): 1.58 µM
- TGI (NCI-H23 lung): 7.36 µM
- GI50 (NCI-H460 lung): 0.538 µM
- TGI (NCI-H460 lung): > 100 µM
- GI50 (NCI-H522 lung): 0.168 µM
- TGI (NCI-H522 lung): 4.79 µM
- GI50 (OVCAR-3 ovarian): 1.74 µM
- TGI (OVCAR-3 ovarian): 6.73 µM
- GI50 (OVCAR-4 ovarian): 3.2 µM
- TGI (OVCAR-4 ovarian): > 100 µM
- GI50 (OVCAR-5 ovarian): 2.45 µM
- TGI (OVCAR-5 ovarian): > 100 µM
- GI50 (OVCAR-8 ovarian): 1.68 µM
- TGI (OVCAR-8 ovarian): > 100 µM
- GI50 (PC-3 prostate): 3.29 µM
- TGI (PC-3 prostate): > 100 µM
- GI50 (RPMI-8226 leukemia): 1.2 µM
- TGI (RPMI-8226 leukemia): 5.14 µM
- GI50 (RXF 393 renal): 2.01 µM
- TGI (RXF 393 renal): 4.21 µM
- GI50 (SF-268 CNS): 2.23 µM
- TGI (SF-268 CNS): 6.58 µM
- GI50 (SF-295 CNS): 3.4 µM
- TGI (SF-295 CNS): > 100 µM
- GI50 (SF-539 CNS): 0.432 µM
- TGI (SF-539 CNS): 3.06 µM
- GI50 (SK-MEL-2 melanoma): 0.933 µM
- TGI (SK-MEL-2 melanoma): 3.13 µM
- GI50 (SK-MEL-5 melanoma): 0.899 µM
- TGI (SK-MEL-5 melanoma): 5.56 µM
- GI50 (SK-OV-3 ovarian): 5.47 µM
- TGI (SK-OV-3 ovarian): > 100 µM
- GI50 (SN12C renal): 0.842 µM
- TGI (SN12C renal): > 100 µM
- GI50 (SNB-19 CNS): 3.58 µM
- TGI (SNB-19 CNS): > 100 µM
- GI50 (SNB-75 CNS): 1.62 µM
- TGI (SNB-75 CNS): 4.29 µM
- GI50 (SR leukemia): 0.17 µM
- TGI (SR leukemia): 1.24 µM
- GI50 (SW-620 colon): 1.81 µM
- TGI (SW-620 colon): > 100 µM
- GI50 (TK-10 renal): 2.87 µM
- TGI (TK-10 renal): > 100 µM
- GI50 (U251 CNS): 1.79 µM
- TGI (U251 CNS): > 100 µM
- GI50 (UACC-257 melanoma): 4.11 µM
- TGI (UACC-257 melanoma): > 100 µM
- GI50 (UACC-62 melanoma): 3.11 µM
- TGI (UACC-62 melanoma): > 100 µM
- GI50 (UO-31 renal): 2.96 µM
- TGI (UO-31 renal): 8.04 µM
